Reference: US20230123334A1, “AMINO LIPID COMPOUND, PREPARATION METHOD THEREFOR, AND APPLICATION THEREOF” (SHENZHEN SHENXIN BIOTECHNOLOGY CO., LTD., priority 2020, published 2023)

Each compound was assayed on HEK293 cells (assay: Preliminary screening as mRNA vectors, EGFP mRNA transfection of HEK293 cells). Conditions: EGFP mRNA 50 ng per well, 96-well plates; percentage of GFP fluorescent cells relative to total number of cells (Hoechst).
Assay type: cell-based
In short: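 Screening format: EGFP mRNA transfection (50 ng/well) into HEK293 in 10% FBS-supplemented DMEM. Percent green fluorescent cells, normalised to Hoechst nuclear count, gave the value; Lipofectamine2000 was the reference transfectant.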

Going from CCCCCCCCCCCCCCCCCCNc1nc(NCCN2CCCCC2)nc(SCCCCCCC)n1 [Compound D4S7N18] to CCCCCCCCCCCCCNc1nc(NCCN2CCCCC2)nc(SCCCCCCCCCCCC)n1 [Compound D4S12N13], the “Absolute mRNA transfection efficiency in HEK293 cells” value (shortened to “Absolute mRNA transfection efficiency”) falls from 7.9% to 1.3%.

First: CCCCCCCCSc1nc(NCCN2CCOCC2)nc(SCCCCCC)n1 [Compound D2S6S8]
Second: CCCCCCCCCCCSc1nc(NCCCN2CCOCC2)nc(SCCCCCCCC)n1 [Compound D8S8S11]
The “Absolute mRNA transfection efficiency” value of the first is lower: 5.0% for the first, 22.2% for the second.

Going from CCCCCCCCCCCCN(CCCCCCCCCCCC)c1nc(NCCN(C)C)nc(SCCCCCCCC)n1 [D1S8^2N12] to CCCCCCCCCCCCN(CCCCCCCCCCCC)c1nc(NCCN(C)C)nc(SCCCCCCCCC)n1 [D1S9^2N12], the “Absolute mRNA transfection efficiency” value rises from 0.4% to 1.0%.

First: CCCCCCCCCCCCCCCCNc1nc(NCC2CCN(C)CC2)nc(SCCCCCCCCCCCCCCCC)n1 [Compound D10S16N16]
Second: CCCCCCCCCCCCCCCCCCNc1nc(NCCN2CCN(C)CC2)nc(SCCCCCCCCCCCCCC)n1 [Compound D5S14N18]
The “Absolute mRNA transfection efficiency” value of the first is higher: 2.8% for the first, 0.6% for the second.

Going from CCCCCCCCCCCCN(CCCCCCCCCCCC)c1nc(NCCCN(C)C)nc(SCCCCCCC)n1 [D6S7^2N12] to CCCCCCCCCCCCCCCCSc1nc(NCCCCCCCCCCC)nc(NCCCN(C)C)n1 [Compound D6S16N11], the “Absolute mRNA transfection efficiency” value rises from 0.9% to 63.0%.

Compared with CCCCCCCCCCCCCCCCCCNc1nc(NCCCN2CCN(C)CC2)nc(SCCCCCCCCC)n1 [Compound D9S9N18], CCCCCCCCCCCCCCCSc1nc(NCCCCCCCCCCC)nc(NCCCN2CCN(C)CC2)n1 [Compound D9S15N11] is lower in “Absolute mRNA transfection efficiency” value: 14.5% for the first, 9.2% for the second.

Going from CCCCCCCCCCCCCCCCSc1nc(NCCCCCCC)nc(NCCN(C)C)n1 [Compound D1S16N7] to CCCCCCCCCCCCCCSc1nc(NCCCCCCCCC)nc(NCCN(C)C)n1 [Compound D1S14N9], the “Absolute mRNA transfection efficiency” value falls from 65.1% to 39.0%.

First: CCCCCCCCCCCCCCSc1nc(NCCCCCCCC)nc(NCCCN2CCOCC2)n1 [Compound D8S14N8]
Second: CCCCCCCCCCCCNc1nc(NCCCN2CCOCC2)nc(SCCCCCCCCC)n1 [Compound D8S9N12]
The “Absolute mRNA transfection efficiency” value of the first is lower: 1.6% for the first, 11.2% for the second.

Going from CCCCCCCCCCCCCCSc1nc(NCCCCCCC)nc(NCCN2CCOCC2)n1 [Compound D2S14N7] to CCCCCCCCCCCCCNc1nc(NCCN2CCCC2)nc(SCCCCCCCC)n1 [Compound D3S8N13], the “Absolute mRNA transfection efficiency” value rises from 4.5% to 35.8%.

First: CCCCCCCCCCCCCCCSc1nc(NCCCCCCCCCCCCC)nc(NCCCN2CCOCC2)n1 [Compound D8S15N13]
Second: CCCCCCCCCCCCCCCCCCSc1nc(NCCCCCCCCCCC)nc(NCCCN2CCOCC2)n1 [Compound D8S18N11]
The “Absolute mRNA transfection efficiency” value of the first is lower: 0.2% for the first, 1.9% for the second.

Compared with CCCCCCCCCCCCCCCCCCNc1nc(NCCN(C)C)nc(SCCCCCCCCCCC)n1 [Compound D1S11N18], CCCCCCCCCCCCCCCCSc1nc(NCCCCCC)nc(NCCN(C)C)n1 [Compound D1S16N6] is higher in “Absolute mRNA transfection efficiency” value: 15.4% for the first, 54.2% for the second.

Compared with CCCCCCCCCCCSc1nc(NCCCCCC)nc(NCCN(CC)CC)n1 [Compound D7S11N6], CCCCCCCCCCCCSc1nc(NCCCCCC)nc(NCCN(CC)CC)n1 [Compound D7S12N6] is lower in “Absolute mRNA transfection efficiency” value: 4.3% for the first, 2.1% for the second.

Compared with CCCCCCCCCCCCCCCSc1nc(NCCN(CC)CC)nc(SCCCCCC)n1 [Compound D7S6S15], CCCCCCCCCCCCCCCSc1nc(NCCCN(C)C)nc(SCCCCCC)n1 [Compound D6S6S15] is higher in “Absolute mRNA transfection efficiency” value: 1.3% for the first, 47.0% for the second.

Compared with CCCCCCCCCCCCSc1nc(NCCCCCCCC)nc(NCCCN(C)C)n1 [Compound D6S12N8], CCCCCCCCCCSc1nc(NCCCCCCC)nc(NCCCN(C)C)n1 [Compound D6S10N7] is lower in “Absolute mRNA transfection efficiency” value: 30.5% for the first, 4.4% for the second.

First: CCCCCCCCNc1nc(NCCN2CCCCC2)nc(SCCCCCCCC)n1 [Compound D4S8N8]
Second: CCCCCCCCCSc1nc(NCCCCCC)nc(NCCN2CCCCC2)n1 [Compound D4S9N6]
The “Absolute mRNA transfection efficiency” value of the first is higher: 0.6% for the first, 0.3% for the second.

First: CCCCCCCCCCCCCCCCSc1nc(NCCCN(C)C)nc(SCCCCCCC)n1 [Compound D6S7S16]
Second: CCCCCCCCCCCCCCSc1nc(NCCCN(C)C)nc(SCCCCCCC)n1 [Compound D6S7S14]
The “Absolute mRNA transfection efficiency” value of the first is higher: 90.8% for the first, 59.7% for the second.

First: CCCCCCCCCCCNc1nc(NCCCN2CCN(C)CC2)nc(SCCCCCCCCCC)n1 [Compound D9S10N11]
Second: CCCCCCCCCCCCSc1nc(NCCCCCCCCCCC)nc(NCCN2CCN(C)CC2)n1 [Compound D5S12N11]
The “Absolute mRNA transfection efficiency” value of the first is higher: 11.3% for the first, 1.1% for the second.

First: CCCCCCCCCCSc1nc(NCCN2CCCC2)nc(SCCCCCCCC)n1 [Compound D3S8S10]
Second: CCCCCCCCCCCSc1nc(NCCN2CCN(C)CC2)nc(SCCCCCC)n1 [Compound D5S6S11]
The “Absolute mRNA transfection efficiency” value of the first is lower: 12.0% for the first, 21.1% for the second.

First: CCCCCCCCCCCCCCCSc1nc(NCCCCCCCCC)nc(NCCN2CCN(C)CC2)n1 [Compound D5S15N9]
Second: CCCCCCCCCCCCNc1nc(NCCN2CCN(C)CC2)nc(SCCCCCCCCCCCC)n1 [Compound D5S12N12]
The “Absolute mRNA transfection efficiency” value of the first is higher: 22.3% for the first, 3.5% for the second.

Compared with CCCCCCCCCCCCCCCCSc1nc(NCCCCCCCCCCCCC)nc(NCCN2CCCC2)n1 [Compound D3S16N13], CCCCCCCCCCCCCCCCNc1nc(NCCN2CCCCC2)nc(SCCCCCCCC)n1 [Compound D4S8N16] is higher in “Absolute mRNA transfection efficiency” value: 0.4% for the first, 1.9% for the second.

Going from CCCCCCCCCCCCCCCCNc1nc(NCCCN2CCN(C)CC2)nc(SCCCCCCCCCCCCCCCC)n1 [Compound D9S16N16] to CCCCCCCCCCCCCCCNc1nc(NCCCN2CCN(C)CC2)nc(SCCCCCCCCCCCCCCC)n1 [Compound D9S15N15], the “Absolute mRNA transfection efficiency” value rises from 0.1% to 0.2%.

Going from CCCCCCCCCCCSc1nc(NCCCCCC)nc(NCC2CCN(C)CC2)n1 [Compound D10S11N6] to CCCCCCCCSc1nc(NCCCCCCC)nc(NCC2CCN(C)CC2)n1 [Compound D10S8N7], the “Absolute mRNA transfection efficiency” value falls from 6.8% to 0.3%.

Compared with CCCCCCSc1nc(NCCCN2CCN(C)CC2)nc(SCCCCCC)n1 [Compound D9S6S6], CCCCCCCCCCCCCNc1nc(NCCN2CCN(C)CC2)nc(SCCCCCC)n1 [Compound D5S6N13] is lower in “Absolute mRNA transfection efficiency” value: 8.0% for the first, 7.2% for the second.

Compared with CCCCCCCCNc1nc(NCCN(C)C)nc(SCCCCCCCC)n1 [Compound D1S8N8], CCCCCCCCCCCSc1nc(NCCN(C)C)nc(SCCCCCC)n1 [Compound D1S6S11] is lower in “Absolute mRNA transfection efficiency” value: 5.8% for the first, 0.4% for the second.

With CCCCCCCCCCCCNc1nc(NCCN(CC)CC)nc(SCCCCCCC)n1 [Compound D7S7N12] the “Absolute mRNA transfection efficiency” value was 3.6%.
